Data from patent publication US9051310B2, “Nicotinamide derivative or salt thereof” (FUJIFILM Corporation, priority 2011, dated 2015).

Key:
[1] = molecular target: T1, glutathione S-transferase (GST)-linked full-length human Syk protein (Homo sapiens, UniProt P43405); assay: Syk enzyme assay; format: biochemical; conditions: 0.83 nM Syk, time-resolved fluorescence; read-out: IC50 of Syk-inhibitory activity
T1 construct: glutathione S-transferase (GST)-linked full-length human Syk protein; purchased Carna Biosciences; host or cells: Baculovirus expression system
Method in brief: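 Phosphotyrosine on a biotin-peptide substrate (0.5 μM) was read by time-resolved fluorescence at 615 and 665 nm with Eu-anti-pTyr antibody and APC-streptavidin after 1 h EDTA stop.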

[2] = tested on: THP-1 cells (phagocytosis of opsonized Escherichia coli); assay: Antibody-dependent phagocytosis assay; format: cell-based; conditions: Homo sapiens; IFNγ differentiated THP-1 cells, opsonized pHrodo Escherichia coli, 3 hours; read-out: IC50 upon phagocytosis inhibition
Method in brief: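 THP-1 cells were differentiated to macrophage-like cells with 10 ng/ml IFNγ for 2 days, then treated with test compound for 30 min at room temperature. pHrodo-labeled E. coli opsonized with anti-E. coli antibody were added for 3 h at 37° C. Phagocytosis by viable (Calcein AM-positive) cells was quantified by imaging.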

[3] = tested on: mouse thrombocytopenia induced by anti-mouse CD41 antibody; assay: Mouse thrombocytopenia model; format: in vivo; conditions: Platelet, female BALB/c mice, 50 mg/kg 1 hour before anti-CD41 antibody, blood sampling 4 hours after antibody, read-out: improvement of platelet count compared with the control group
Experimental: Test compounds were tested to examine effects upon mouse thrombocytopenia. Each test compound (50 mg/kg) was administered to 5- to 7-week-old female BALB/c mice (Charles River Laboratories Japan, Inc.). One hour thereafter, an anti-mouse CD41 ([…]) antibody (SCB) (1 μg (200 μl)) was intravenously administered to each mouse so as to induce thrombocytopenia. Four hours after administration of the anti-CD41 antibody, blood sampling from the postcava was performed. The platelet count was determined using an automated hematology analyzer.

[4] = tested on: THP-1 cells (TNFα secretion on human IgG-coated plate); assay: TNFα generation assay; format: cell-based; conditions: IFN-γ differentiated THP-1 cells, 7 hours, AlphaLISA, read-out: IC50 of TNFα generation inhibitory activity
Method in brief: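 THP-1 cells were differentiated with 10 ng/ml IFN-γ for 2 days, then preincubated with compound for 30 min at room temperature. They were then plated at 5×10^4 cells/well on plates coated with human IgG (10 μg/ml). TNFα secreted over 7 h of culture was quantified by AlphaLISA.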

C[C@H](N)[C@@H](CC1CC1)Nc1nc(Nc2ccc3c(c2)c(N(C)C)nn3C)c(C(N)=O)cc1F [Example 2-2, 6-(((2R,3S)-3-amino-1-cyclopropylbutan-2-yl)amino)-2-((3-(dimethylamino)-1-methyl-1H-indazol-5-yl)amino)-5-fluoronicotinamide]
IC50 [1]: < 0.01 µM
IC50 [2]: < 1 µM
change in vivo at 50 mg/kg [3]: ≥ 50%

C[C@H](N)[C@H](Nc1nc(Nc2ccc3c(c2)c(N(C)C)nn3C)c(C(N)=O)cc1F)C1CCC1 [Example 2-89, 6-(((1R,2S)-2-amino-1-cyclobutylpropyl)amino)-2-((3-(dimethylamino)-1-methyl-1H-indazol-5-yl)amino)-5-fluoronicotinamide]
IC50 [1]: < 0.01 µM
IC50 [2]: 1 to 3 µM
change in vivo at 50 mg/kg [3]: ≥ 50%

C[C@H](N)[C@H](Nc1nc(Nc2cc(F)c3c(c2)c(N(C)C)nn3C)c(C(N)=O)cc1F)C1CCC1 [Example 2-192, 6-(((1R,2S)-2-amino-1-cyclobutylpropyl)amino)-2-((3-(dimethylamino)-7-fluoro-1-methyl-1H-indazol-5-yl)amino)-5-fluoronicotinamide]
IC50 [1]: < 0.01 µM
IC50 [2]: 1 to 3 µM
change in vivo at 50 mg/kg [3]: ≥ 50%

CC[C@@H](Nc1nc(Nc2cnc3c(c2)c(OC)nn3C)c(C(N)=O)cc1F)[C@H](C)N [Example 2-251, 6-(((2S,3R)-2-aminopentan-3-yl)amino)-5-fluoro-2-((3-methoxy-1-methyl-1H-pyrazolo[3,4-b]pyridin-5-yl)amino)nicotinamide]
IC50 [1]: 0.01 to 0.05 µM
change in vivo at 50 mg/kg [3]: ≥ 50%
IC50 [4]: 0.13 to 0.2 µM

CCn1ncc2cc(Nc3nc(N[C@@H]4CCOC[C@@H]4N)c(F)cc3C(N)=O)ccc21 [Example 2-326, 6-(((3R,4R)-3-aminotetrahydro-2H-pyran-4-yl)amino)-2-((1-ethyl-1H-indazol-5-yl)amino)-5-fluoronicotinamide]
IC50 [1]: < 0.01 µM
change in vivo at 50 mg/kg [3]: ≥ 50%
IC50 [4]: < 0.065 µM

Cc1nn(CC(F)F)c2ccc(Nc3nc(N[C@@H]4CCOC[C@@H]4N)c(F)cc3C(N)=O)cc12 [Example 2-328, 6-(((3R,4R)-3-aminotetrahydro-2H-pyran-4-yl)amino)-2-((1-(2,2-difluoroethyl)-3-methyl-1H-indazol-5-yl)amino)-5-fluoronicotinamide]
IC50 [1]: < 0.01 µM
change in vivo at 50 mg/kg [3]: ≥ 50%
IC50 [4]: < 0.065 µM

Cc1ncc(Nc2nc(N[C@H](c3cccs3)[C@H](C)N)c(F)cc2C(N)=O)cc1-n1nccn1 [Example 2-415, 6-(((1S,2S)-2-amino-1-(thiophen-2-yl)propyl)amino)-5-fluoro-2-((6-methyl-5-(2H-1,2,3-triazol-2-yl)pyridin-3-yl)amino)nicotinamide]
IC50 [1]: < 0.01 µM
change in vivo at 50 mg/kg [3]: ≥ 50%
IC50 [4]: 0.13 to 0.2 µM

COCCN(C)c1nn(C)c2ccc(Nc3nc(N[C@@H]4CCCC[C@@H]4N)c(F)cc3C(N)=O)cc12 [Example 2-456, 6-(((1R,2S)-2-aminocyclohexyl)amino)-5-fluoro-2-((3-((2-methoxyethyl)(methyl)amino)-1-methyl-1H-indazol-5-yl)amino)nicotinamide]
IC50 [1]: < 0.01 µM
change in vivo at 50 mg/kg [3]: ≥ 50%

Cc1cc(C)n(-c2cncc(Nc3nc(N[C@@H]4CCCC[C@@H]4N)c(F)cc3C(N)=O)c2)n1 [Example 2-473, 6-(((1R,2S)-2-aminocyclohexyl)amino)-2-((5-(3,5-dimethyl-1H-pyrazol-1-yl)pyridin-3-yl)amino)-5-fluoronicotinamide]
IC50 [1]: 0.01 to 0.05 µM
change in vivo at 50 mg/kg [3]: ≥ 50%

NC(=O)c1cc(F)c(N[C@@H]2CCCC[C@@H]2N)nc1Nc1cncc(-n2cc(Cl)cn2)c1 [Example 2-483, 6-(((1R,2S)-2-aminocyclohexyl)amino)-2-((5-(4-chloro-1H-pyrazol-1-yl)pyridin-3-yl)amino)-5-fluoronicotinamide]
IC50 [1]: < 0.01 µM
change in vivo at 50 mg/kg [3]: ≥ 50%
